Experimental data reported in patent US7109234B2, “Benzoxathiepine derivatives and their use as medicines” (Pierre Fabre Medicament, priority 2001, dated 2006).
pIC50: −log10 of the molar value. Where two headings read alike, the source gives them in different places.

What was measured:
rat isolated left atrium = assay: Inhibition of the veratrine-induced contraction of the rat isolated left atrium; format: cell-based; details: for pIC50: read-out: Contraction with veratrine Inhibition IC50; for in vitro activity (contraction with veratrine): stated in words
New Zealand rabbits = assay: Occlusion-reperfusion model in the anesthetized animal (ECG ST segment, arterial pressure, heart rate); format: in vivo, rabbit; details: for Arterial pressure % variation / Heart rate % variation / ST segment % inhibition at 2.5 mg/kg p.o.: 2.5 mg/kg p.o., anesthetized rabbit; for ST segment % inhibition at 2.5 mg/kg p.o.: coronary occlusion-reperfusion; for in vivo activity (inhibition of the raising of the ST segment): stated in words, 2.5 mg/kg by the oral route
Protocol: Thus, the compounds of the invention are capable of normalizing the electrical disturbances of the ECG brought about by a regional ischemia followed by a reperfusion, this being achieved without a significant effect on the hemodynamic parameters. The test in question is carried out according to the technique described in J. Cardiovasc. Pharmacol., 1995, 25, 126 according to the following protocol.
Male New Zealand rabbits (Elévage des Dombes, Romans, Chatillon-sur-Chalaronne, France) weighing 2.2 to 2.7 kg are used. The animals are placed in quarantine for 4 to 8 days with free access to standardized laboratory food before they are used in the experiments. The animals are housed individually. Water filtered through a 0.22 μm filter is freely available from an automatic dispenser. The quarantine area and the experimental laboratory are air-conditioned (temperature: 20±3° C.; relative humidity: 55±5%) and are illuminated from 7 a.m. to 7 p.m. All the animals are treated according to the code of ethics for laboratory animals (Guide for the Care and Use of Laboratory Animals, […], Public Health Service, National Institutes of Health publication No. 85-23, Revised 1985) and the protocol (No. 28) is carried out in accordance with the recommendations of the local research animals ethics committee. The animals are anesthetized using sodium pentobarbital (60 mg/kg) administered intravenously (i.v.) via a catheter positioned in the vein of the ear. The animals are instrumented with respiratory assistance (683 rodent/small animal ventilator, Havard Apparatus, Les Ulis, France). The gas mixture inhaled is enriched in oxygen. The respiratory rhythm, the flow volume and the percentage of oxygen in the gas mixture are adjusted so as to keep the gases in the blood within physiological limits. A polyethylene catheter, introduced into the carotid artery, is used both for the measurements of arterial pressure and to take the samples intended for the analysis of the blood gases (ABL 510, Radiometer, Copenhagen, Denmark). Anesthesia is maintained by injections of sodium pentobarbital as required. The body temperature of the animals is kept at 38–39° C. throughout the duration of the experiment using a heating blanket (Homothermic Blanket, Havard Apparatus). The various catheters are rinsed using a sterile saline solution (0.9%) comprising heparin (150 U.I./ml). The ECG (DII derivation) is recorded in order to measure the variations in the heart rate (RR interval) and in the amplitude of the ST segment. The arterial pressure is digitized and analyzed simultaneously (Dataflow®, Crystal Biotech, Northboro, Mass.). The thorax of the animal is opened at the fourth intercostal space and the pericardium is incised so as to reveal the left coronary artery. A ligature (Vicryl®, 5/0, Ethicon, Paris, France) is passed under this artery. After examining the ECG in order to detect any signs of myocardial lesions (persistent rise of the ST segment above 0.25 mV), a period of stabilization lasting 30 min is systematically observed. Any animal showing a possible myocardial lesion is excluded from the study. The test compound or the vehicle is administered per os (p.o.), as a 1% solution in methyl-cellulose, in a proportion of 1 ml/kg via a gastric tube made of flexible rubber. Anesthesia is produced 60 min after administration of the test compound or of the vehicle. The main coronary artery is then ligated for 10 min, i.e. 60 min after anesthesia, the tension in the ligature is subsequently relaxed completely for 10 min and then reestablished at the end of the procedure. The heart is excised and perfused using a formaldehyde solution (10%). The surface not fixed by the formaldehyde is regarded as the surface at risk.
The parameters measured in the experiment are: • the systolic and diastolic arterial pressure; • the heart rate (measured from the RR intervals); • the amplitude of the ST segment. […]

[1] = rat isolated left atrium, veratrine 100 μg/ml, product added 15 min before

Compound	pIC50 (rat isolated left atrium; [1])	in vitro activity (contraction with veratrine) (rat isolated left atrium)	Arterial pressure % variation (New Zealand rabbits) [%]	Heart rate % variation (New Zealand rabbits) [%]	ST segment % inhibition at 2.5 mg/kg p.o. (New Zealand rabbits) [%]	in vivo activity (inhibition of the raising of the ST segment) (New Zealand rabbits)	pIC50 (rat isolated left atrium; Rattus norvegicus)
CC(C)NCC(O)COc1ccc(CC(N)=O)cc1 (stereo not shown) [Atenolol, atenolol]	< 5.00	inactive	−9	−13	49	active	–
COc1ccccc1SC[C@H](CN[C@@H]1COc2ccccc2SC1)OC [Compound 1-1, 3-(R)-[3-(2-Methoxyphenylthio)-2-(S)-methoxypropyl]amino-3,4-dihydro-2H-1,5-benzoxathiepine]	6.19	–	8	2	85	–	–
COc1ccccc1SC[C@@H](C)CN[C@@H]1COc2ccccc2SC1 [Compound 1-7, 3-(R)-[3-(2-Methoxyphenylthio)-2-(S)-methylpropyl]amino-3,4-dihydro-2H-1,5-benzoxathiepine]	6.85	–	5	0	69	–	–
COc1ccc([C@@H]2Sc3ccccc3N(CCN(C)C)C(=O)[C@@H]2OC(C)=O)cc1 [Diltiazem, diltiazem]	< 5.00	inactive	−27	−5	30	active	–
CN(c1nc2ccccc2s1)C1CCN(CCCCOc2ccc(F)cc2)CC1 [R 56865]	–	–	–	–	0	–	6.60
